Literature values as cited in paper PMC10998826 (EJNMMI Research, 2024).

Conditions: active metabolite of sacubitril; cited from earlier work
Protocol: Sacubitril (AHU377) is a potent inhibitor of the NEP. The combination of sacubitril and the angiotensin-receptor blocker valsartan (Entresto®) is effective in reducing the risks of death and of hospitalization for heart failure and is approved for this indication in numerous countries. The highest blood plasma concentration of its active metabolite, LBQ657, is measured around two hours after oral intake.

## C[C@H](C[C@@H](Cc1ccc(-c2ccccc2)cc1)NC(=O)CCC(=O)O)C(=O)O [LBQ657]
  Time of highest blood plasma concentration after oral intake: around two
